Results on 18 compounds are retold here after ChEMBL document CHEMBL4622901, “Vinyl sulfone-based inhibitors of trypanosomal cysteine protease rhodesain with improved antitrypanosomal activities” (Bioorg Med Chem Lett, 2020).

Data set [1] has as its target Rhodesain (Trypanosoma brucei rhodesiense) (UniProt Q95PM0). Briefly: Inhibition of Trypanosoma brucei rhodesain assessed as Kinact/Ki ratio.
The test system of the next data set is Trypanosoma brucei. The data set can be described thus: Antitrypanosomal activity against Trypanosoma brucei. The format is functional, organism-based.
Data set [2] concerns the target Rhodesain (Trypanosoma brucei rhodesiense) (UniProt Q95PM0). Briefly: Inhibition of Trypanosoma brucei rhodesain at 10 uM measured after 1 hr relative to control.
Data set [3] can be described thus: Selectivity index, ratio of CC50 for human HepG2 cells to EC50 for Trypanosoma brucei. The data set is classed as toxicity. As to conditions: read-out: Ratio CC50/EC50.
Data set [4] in a line: Cytotoxicity against human HepG2 cells assessed as reduction in cell viability. The format is cell-based.

Molecules are shown by their SMILES.

Chain of Rhodesain (Trypanosoma brucei rhodesiense) (Q95PM0 1-450): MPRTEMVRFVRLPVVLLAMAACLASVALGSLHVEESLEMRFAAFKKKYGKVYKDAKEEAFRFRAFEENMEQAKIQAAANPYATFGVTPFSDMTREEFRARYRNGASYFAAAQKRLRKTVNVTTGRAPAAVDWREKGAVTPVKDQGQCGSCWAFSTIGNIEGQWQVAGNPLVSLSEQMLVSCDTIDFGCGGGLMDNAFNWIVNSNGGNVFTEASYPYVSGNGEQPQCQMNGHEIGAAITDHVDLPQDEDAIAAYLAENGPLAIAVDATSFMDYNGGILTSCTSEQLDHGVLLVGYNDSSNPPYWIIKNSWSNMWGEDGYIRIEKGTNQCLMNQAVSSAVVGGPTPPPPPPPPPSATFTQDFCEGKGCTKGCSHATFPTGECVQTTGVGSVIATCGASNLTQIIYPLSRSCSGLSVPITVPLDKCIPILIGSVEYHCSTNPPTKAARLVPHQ

By EC50 is commonly meant the concentration at which the effect is half-maximal. Low values mean an effect from little substance, high ones a need for much substance. In general, inhibition refers to the percentage by which the read-out fell short of the control. Lower therefore signals a response near the control. Broadly, the CC50 is the concentration that lowers cell viability or growth by half. Turning to `O=C(N[C@H](/C=C/S(=O)(=O)c1ccccc1)CCc1ccccc1)c1cccc2c1NCCC2`, the kinact/Ki in data set [1] was 245 M⁻¹ s⁻¹. This compound came in with an EC50 with Trypanosoma brucei of 6.3 µM. This compound yielded an inhibition in data set [2] of 100%. The selectivity ratio in data set [3] is over 25. Besides, in data set [4], the cytotoxic concentration (CC50) was over 160 µM.

Regarding `O=C(N[C@H](/C=C/S(=O)(=O)c1ccccc1)Cc1ccccc1)c1cccc2cccnc12`, the EC50 with Trypanosoma brucei worked out at 11.7 µM. In addition, the selectivity ratio in data set [3] turned out to be 2.16. Further, the CC50 in data set [4] came to 25.3 µM.

On to `O=C(N[C@H](/C=C/S(=O)(=O)c1ccccc1)CCc1ccccc1)c1ccc([N+](=O)[O-])s1`, for which the concentration giving a half-maximal response (EC50) in the data set with Trypanosoma brucei stood at 0.69 µM. Further, the inhibition in data set [2] is 100%. Further, in data set [3], the selectivity ratio was found to be 18. Further, in data set [4], the CC50 came to 12.4 µM.

`C[C@H]1CC(C)(C)Nc2c(C(=O)N[C@H](/C=C/S(=O)(=O)c3ccccc3)CCc3ccccc3)cccc21` returned a concentration giving a half-maximal response (EC50) with Trypanosoma brucei of 3.02 µM. Moreover, the selectivity ratio in data set [3] is over 99.3. Moreover, the CC50 in data set [4] is over 300 µM.

In the data set on Trypanosoma brucei, `CC(C)C[C@@H](/C=C/S(=O)(=O)c1ccccc1)NC(=O)c1cccc2cccnc12` showed an EC50 of 7.98 µM. Besides, the selectivity ratio in data set [3] is 1.89. Also, the 50% cytotoxic concentration (CC50) in data set [4] worked out at 15.1 µM.

As to `Cn1cc([N+](=O)[O-])nc1C(=O)N[C@H](/C=C/S(=O)(=O)c1ccccc1)CCc1ccccc1`, the kinact/Ki in data set [1] was 59 M⁻¹ s⁻¹. Further, it took 7.04 µM to reach a half-maximal effect in the data set on Trypanosoma brucei (EC50). This compound registered an inhibition in data set [2] of 91.9%. Moreover, the selectivity ratio in data set [3] turned out to be 4.08. The cytotoxic concentration (CC50) in data set [4] came out at 28.8 µM.

`O=C(N[C@H](/C=C/S(=O)(=O)c1ccccc1)CCc1ccccc1)c1ccc([N+](=O)[O-])o1` gave an EC50 in the data set with Trypanosoma brucei of 0.11 µM. Also, in data set [2], the inhibition came out at 78.1%. In addition, in data set [3], the selectivity ratio came to 47. Moreover, in data set [4], the CC50 is 5.17 µM.

`CC1=CC(C)(C)Nc2c(C(=O)N[C@H](/C=C/S(=O)(=O)c3ccccc3)CCc3ccccc3)cccc21` yielded a half-maximal effective concentration (EC50) in the data set with Trypanosoma brucei of 1.88 µM. For the same compound, the selectivity ratio in data set [3] was over 160. Also, in data set [4], the cytotoxic concentration (CC50) was over 300 µM.

Turning to `CCC[C@@H](/C=C/S(=O)(=O)c1ccccc1)NC(=O)c1cccc2cccnc12`, the kinact/Ki in data set [1] is 82.1 M⁻¹ s⁻¹. Moreover, the concentration for a half-maximal effect (EC50) in the data set on Trypanosoma brucei was determined as 9.23 µM. The same compound returned an inhibition in data set [2] of 93.5%. In data set [3], the selectivity ratio is over 8.66. Moreover, the CC50 in data set [4] was over 80 µM.

With `Cc1ncn(C)c1C(=O)N[C@H](/C=C/S(=O)(=O)c1ccccc1)CCc1ccccc1`, the EC50 with Trypanosoma brucei was 19.6 µM. For the same compound, the selectivity ratio in data set [3] worked out at 1.76. The half-maximal cytotoxic concentration (CC50) in data set [4] worked out at 34.4 µM.

On to `Cc1ccc(C(=O)Nc2ccc(S(=O)(=O)O)c3cc(S(=O)(=O)O)cc(S(=O)(=O)O)c23)cc1NC(=O)c1cccc(NC(=O)Nc2cccc(C(=O)Nc3cc(C(=O)Nc4ccc(S(=O)(=O)O)c5cc(S(=O)(=O)O)cc(S(=O)(=O)O)c45)ccc3C)c2)c1` [SURAMIN], for which the half-maximal effective concentration (EC50) in the data set with Trypanosoma brucei amounted to 0.004 µM.

`O=C(N[C@H](/C=C/S(=O)(=O)c1ccccc1)CCc1ccccc1)c1cccc2nccnc12`: the kinact/Ki in data set [1] was 293 M⁻¹ s⁻¹. This compound also had a half-maximal effective concentration (EC50) with Trypanosoma brucei of 5.9 µM. The inhibition in data set [2] was determined as 99.1%. Also, in data set [3], the selectivity ratio is 6.71. Further, the CC50 in data set [4] worked out at 39.6 µM.

Take `O=C(N[C@H](/C=C/S(=O)(=O)c1ccccc1)CCc1ccccc1)[C@@H]1CSCN1`: the kinact/Ki in data set [1] was 161 M⁻¹ s⁻¹. In the data set on Trypanosoma brucei, this compound returned an EC50 of 6.94 µM. This compound also registered an inhibition in data set [2] of 99.3%. Moreover, the selectivity ratio in data set [3] is 11.2. Also, in data set [4], the CC50 is 77.8 µM.

`O=C(N[C@H](/C=C/S(=O)(=O)c1ccccc1)CCc1ccccc1)c1cccc2cccnc12` registered a concentration giving a half-maximal response (EC50) with Trypanosoma brucei of 5.97 µM. The compound also registered an inhibition in data set [2] of 100%. Moreover, the selectivity ratio in data set [3] was over 13.4. Also, in data set [4], the cytotoxic concentration (CC50) was over 80 µM.

`O=C(Cc1ccccn1)N[C@H](/C=C/S(=O)(=O)c1ccccc1)CCc1ccccc1`: the half-maximal effective concentration (EC50) with Trypanosoma brucei is over 20 µM. The CC50 in data set [4] was determined as 37.9 µM.

On to `COc1cc([C@@H]2c3cc4c(cc3[C@H](O)[C@H]3COC(=O)[C@H]23)OCO4)cc(OC)c1OC` [PODOFILOX], for which, in data set [4], the CC50 was under 0.5 µM.

With `CCCC[C@@H](/C=C/S(=O)(=O)c1ccccc1)NC(=O)c1cccc2cccnc12`, the kinact/Ki in data set [1] was found to be 108 M⁻¹ s⁻¹. Besides, the EC50 in the data set with Trypanosoma brucei came out at 6.2 µM. In addition, the inhibition in data set [2] came out at 96.2%. The selectivity ratio in data set [3] came to 6.38. Also, the CC50 in data set [4] is 36.5 µM.

`O=C(NC/C=C/S(=O)(=O)c1ccccc1)c1cccc2cccnc12`: in the data set with Trypanosoma brucei, the EC50 is 14.3 µM. Besides, the selectivity ratio in data set [3] stood at 3.86. For the same compound, the CC50 in data set [4] was 55.5 µM.
